From ChEMBL document CHEMBL1142681, “Three-dimensional structure-activity relationships of nonsteroidal ligands in complex with androgen receptor ligand-binding domain” (J Med Chem, 2005)

Target: T1, Androgen receptor (Rattus norvegicus, UniProt P15207)
T1 sequence (P15207 whole entry): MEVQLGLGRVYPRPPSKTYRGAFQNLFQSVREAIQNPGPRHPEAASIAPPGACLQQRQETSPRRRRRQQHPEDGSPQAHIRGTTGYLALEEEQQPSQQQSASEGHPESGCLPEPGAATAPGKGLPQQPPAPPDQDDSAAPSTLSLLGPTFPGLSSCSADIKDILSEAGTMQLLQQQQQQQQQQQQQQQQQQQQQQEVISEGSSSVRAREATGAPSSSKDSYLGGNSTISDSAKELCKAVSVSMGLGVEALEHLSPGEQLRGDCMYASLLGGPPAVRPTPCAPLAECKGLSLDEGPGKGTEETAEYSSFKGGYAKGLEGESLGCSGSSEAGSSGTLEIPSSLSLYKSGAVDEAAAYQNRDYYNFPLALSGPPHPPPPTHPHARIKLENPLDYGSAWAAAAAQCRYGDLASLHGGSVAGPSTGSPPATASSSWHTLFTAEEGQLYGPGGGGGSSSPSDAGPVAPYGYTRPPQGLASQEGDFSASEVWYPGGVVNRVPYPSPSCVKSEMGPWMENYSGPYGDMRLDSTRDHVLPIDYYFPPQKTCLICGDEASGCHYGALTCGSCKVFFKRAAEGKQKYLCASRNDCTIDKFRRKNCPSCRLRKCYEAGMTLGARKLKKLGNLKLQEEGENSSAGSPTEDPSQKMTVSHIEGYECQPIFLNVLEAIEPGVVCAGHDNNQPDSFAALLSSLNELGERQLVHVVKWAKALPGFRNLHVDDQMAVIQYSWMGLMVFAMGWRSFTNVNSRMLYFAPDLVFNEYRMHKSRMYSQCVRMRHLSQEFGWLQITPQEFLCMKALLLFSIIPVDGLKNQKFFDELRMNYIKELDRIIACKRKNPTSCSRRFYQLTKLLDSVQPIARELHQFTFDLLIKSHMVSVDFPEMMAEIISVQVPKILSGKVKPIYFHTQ
Description: Inhibition of [3H]mibolerone binding to cytosolic androgen receptor of rat ventral prostate

Structure (SMILES) | Ki [nM]
CCC(=O)N(C(=O)CC)c1ccc(SC[C@](C)(O)C(=O)Nc2ccc(C#N)c(C(F)(F)F)c2)cc1 | 661
C[C@](O)(CSc1ccc(NC(=O)CCl)cc1)C(=O)Nc1ccc([N+](=O)[O-])c(C(F)(F)F)c1 | 3.31
CC(=O)Nc1ccc(S(=O)(=O)C[C@](C)(O)C(=O)Nc2ccc(C#N)c(C(F)(F)F)c2)cc1 | 15.8
CC(=O)Nc1ccc(SC[C@@](C)(O)C(=O)Nc2ccc(C#N)c(C(F)(F)F)c2)cc1 | 1380
C[C@](O)(CSc1ccc(N)cc1)C(=O)Nc1ccc([N+](=O)[O-])c(C(F)(F)F)c1 | 57.5
C[C@](O)(CS(=O)(=O)c1ccc(NC(=O)CCl)cc1)C(=O)Nc1ccc([N+](=O)[O-])c(C(F)(F)F)c1 | 6.92
C[C@@](O)(CSc1ccc(NC(=O)CCl)cc1)C(=O)Nc1ccc([N+](=O)[O-])c(C(F)(F)F)c1 | 97.7
C[C@@](O)(CS(=O)(=O)c1ccc(NC(=O)CCl)cc1)C(=O)Nc1ccc([N+](=O)[O-])c(C(F)(F)F)c1 | 234
C[C@](O)(CSc1ccc(NS(C)(=O)=O)cc1)C(=O)Nc1ccc([N+](=O)[O-])c(C(F)(F)F)c1 | 50.1
C[C@](O)(CSc1ccc(NC(=O)C(F)(F)F)cc1)C(=O)Nc1ccc([N+](=O)[O-])c(C(F)(F)F)c1 | 2.57
CC(=O)Nc1ccc(SC[C@@](C)(O)C(=O)Nc2ccc([N+](=O)[O-])c(C(F)(F)F)c2)cc1 | 123
C[C@](O)(CBr)C(=O)Nc1ccc([N+](=O)[O-])cc1 | 33.1
C[C@](O)(CSc1ccc(N=C=S)cc1)C(=O)Nc1ccc2c(C(F)(F)F)cc(=O)oc2c1 | 135
C[C@@](O)(CBr)C(=O)Nc1ccc2c(C(F)(F)F)cc(=O)oc2c1 | 245
C[C@](O)(CSc1ccccc1)C(=O)Nc1ccc2c(C(F)(F)F)cc(=O)oc2c1 | 132
C[C@](O)(CSc1ccc(N)cc1)C(=O)Nc1ccc2c(C(F)(F)F)cc(=O)oc2c1 | 288
CC(=O)Nc1ccc(SC[C@](C)(O)C(=O)Nc2ccc([N+](=O)[O-])c(C(F)(F)F)c2)cc1 | 2.88
CC(=O)N(C(C)=O)c1ccc(SC[C@](C)(O)C(=O)Nc2ccc(C#N)c(C(F)(F)F)c2)cc1 | 105
C[C@](O)(CS(=O)(=O)c1ccc(NS(C)(=O)=O)cc1)C(=O)Nc1ccc([N+](=O)[O-])c(C(F)(F)F)c1 | 15.1
C[C@](O)(CBr)C(=O)Nc1ccc([N+](=O)[O-])cc1[N+](=O)[O-] | 1170
C[C@](O)(CS(=O)(=O)c1ccc(N)cc1)C(=O)Nc1ccc(C#N)c(C(F)(F)F)c1 | 32.4
C[C@](O)(CBr)C(=O)Nc1ccc2c(C(F)(F)F)cc(=O)oc2c1 | 132
CCC(=O)Nc1ccc(SC[C@](C)(O)C(=O)Nc2ccc(C#N)c(C(F)(F)F)c2)cc1 | 26.9
Cc1cc(=O)oc2cc(NC(=O)[C@@](C)(O)CSc3ccc(F)cc3)ccc12 | 91.2
C[C@@](O)(CSc1ccc(N)cc1)C(=O)Nc1ccc([N+](=O)[O-])c(C(F)(F)F)c1 | 525
C[C@](O)(CS(=O)(=O)c1ccc(NC(=O)C(F)(F)F)cc1)C(=O)Nc1ccc([N+](=O)[O-])c(C(F)(F)F)c1 | 6.17
CC(=O)Nc1ccc(S(=O)(=O)C[C@@](C)(O)C(=O)Nc2ccc([N+](=O)[O-])c(C(F)(F)F)c2)cc1 | 589
C[C@](O)(CBr)C(=O)Nc1ccc(N)c(C(F)(F)F)c1 | 81.3
CC(=O)Nc1ccc(SC[C@](C)(O)C(=O)Nc2ccc(C#N)c(C(F)(F)F)c2)cc1 [ACETOTHIOLUTAMIDE] | 4.9
